# Reference: ChEMBL document CHEMBL5230087, “Inhibitors of SARS-CoV-2 Entry: Current and Future Opportunities” (J Med Chem, 2020)
# Legend:
# [1] = Selectivity index, ratio of CC50 for African green monkey Vero cells to EC50 for SARS-CoV-2 nCoV-2019; assay type: toxicity; details: read-out: Selectivity Index
# [2] = Cytotoxicity against african green monkey Vero cells incubated for 3 days; assay type: toxicity, cell-based; details: chlorocebus sabaeus, time 3 day
# [3] = target: T1, Angiotensin-converting enzyme 2 (Homo sapiens, UniProt Q9BYF1); assay: Binding affinity to ACE2 (unknown origin) at 10 uM assessed as inhibition constant
# T1 sequence (Q9BYF1 whole entry): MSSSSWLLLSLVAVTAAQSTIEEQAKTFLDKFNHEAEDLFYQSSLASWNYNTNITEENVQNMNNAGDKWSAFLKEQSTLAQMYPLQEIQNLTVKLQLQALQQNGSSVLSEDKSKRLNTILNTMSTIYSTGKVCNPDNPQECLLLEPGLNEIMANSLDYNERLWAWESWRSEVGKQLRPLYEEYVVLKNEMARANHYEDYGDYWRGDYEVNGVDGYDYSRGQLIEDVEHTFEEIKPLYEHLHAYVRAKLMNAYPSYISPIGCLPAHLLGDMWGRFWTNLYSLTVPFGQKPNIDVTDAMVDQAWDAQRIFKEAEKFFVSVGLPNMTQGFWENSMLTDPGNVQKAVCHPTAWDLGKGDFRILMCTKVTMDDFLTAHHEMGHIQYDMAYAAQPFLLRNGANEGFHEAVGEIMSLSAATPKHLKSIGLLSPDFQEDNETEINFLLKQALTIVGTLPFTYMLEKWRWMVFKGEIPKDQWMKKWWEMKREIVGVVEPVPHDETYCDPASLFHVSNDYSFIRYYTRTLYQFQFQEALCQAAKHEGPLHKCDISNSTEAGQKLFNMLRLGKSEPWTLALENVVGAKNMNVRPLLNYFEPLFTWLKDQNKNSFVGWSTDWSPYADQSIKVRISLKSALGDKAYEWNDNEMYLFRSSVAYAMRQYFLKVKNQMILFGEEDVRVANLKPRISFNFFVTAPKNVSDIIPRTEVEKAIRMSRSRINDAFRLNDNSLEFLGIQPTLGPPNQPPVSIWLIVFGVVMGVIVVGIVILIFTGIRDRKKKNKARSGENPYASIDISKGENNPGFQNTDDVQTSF
# [4] = target: T1, Angiotensin-converting enzyme 2; assay: Inhibition of human ACE2 (unknown origin) at 0.5 uM
# [5] = target: T1, Angiotensin-converting enzyme 2; assay: Inhibition of human recombinant ACE2 at 50 uM using (7Mca-Y-V-A- D -A-P- K(Knp) as a flurogenic substrate measured after 10 mins by fluorescence based analysis
# [6] = Inhibition of clathrin mediated endocytosis (unknown origin); set-up: species or system Homo sapiens
# [7] = target: Procathepsin L (Homo sapiens, UniProt P07711); assay: Inhibition of human recombinant Cathepsin L […] using Z-FR-AMC as substrate incubated for 30 mins by fluorometric assay
# Chain of Procathepsin L (P07711 whole entry): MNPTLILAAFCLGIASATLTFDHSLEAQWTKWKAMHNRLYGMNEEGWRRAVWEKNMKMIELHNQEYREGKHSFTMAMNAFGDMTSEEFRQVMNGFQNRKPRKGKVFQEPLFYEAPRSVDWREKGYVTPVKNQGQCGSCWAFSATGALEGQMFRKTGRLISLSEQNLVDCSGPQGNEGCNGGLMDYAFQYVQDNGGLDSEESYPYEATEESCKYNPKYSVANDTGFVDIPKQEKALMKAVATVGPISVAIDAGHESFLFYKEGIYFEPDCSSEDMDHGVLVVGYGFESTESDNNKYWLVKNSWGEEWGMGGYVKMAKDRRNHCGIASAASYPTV
# [8] = Antiviral activity against pseudovirus SARS-CoV spike protein infected in HeLa cells over expressing ACE2 assessed as inhibition on pseudovirus infection incubated for 52 hrs by luminescence based microplate reader analysis; assay type: functional, cell-based
# [9] = tested on: Human coronavirus 229E; assay: Antiviral activity against HCoV-229E; assay type: functional, organism-based
# [10] = tested on: SARS-CoV-2; assay: Antiviral activity against SARS-COV2 infected in African green monkey Vero B cells incubated for 48 hrs by ELISA; assay type: functional, organism-based; details: Severe acute respiratory syndrome coronavirus 2, Vero B
# [11] = Inhibition of MERS-CoV S protein RBD (E367 to Y606 residues) expressed in Fc portion of the human IgG1 in CHO cells by chromatography method; set-up: species or system Middle East respiratory syndrome-related coronavirus
# [12] = tested on: SARS-CoV; assay: Antiviral activity against SARS-CoV infected in African green monkey Vero cells assessed as viral growth inhibition; assay type: functional, organism-based; details: Severe acute respiratory syndrome-related coronavirus
# [13] = target: T1, Angiotensin-converting enzyme 2; assay: Inhibition of human recombinant ACE2
smiles,measurement,setting,value
O=c1cc(-c2ccc(O)c(O)c2)oc2cc(O)cc(O)c12 [LUTEOLIN],selectivity ratio,[1],14.6
same,CC50 at 72 h,[2],155 µM
O=c1c(O)c(-c2ccc(O)c(O)c2)oc2cc(O)cc(O)c12 [QUERCETIN],CC50 at 72 h,[2],3320 µM
O=C(OC[C@H]1O[C@@H](OC(=O)c2cc(O)c(O)c(O)c2)[C@H](OC(=O)c2cc(O)c(O)c(O)c2)[C@H](OC(=O)c2cc(O)c(O)c(O)c2)[C@@H]1O)c1cc(O)c(O)c(O)c1,selectivity ratio,[1],240
same,CC50 at 72 h,[2],1080 µM
CC(C)C[C@H](NC(=O)[C@@H]1CCCN1C(=O)[C@H](CO)NC(=O)[C@H](CS)NC(=O)[C@H](Cc1cnc[nH]1)NC(=O)[C@H](CO)NC(=O)[C@H](Cc1ccc(O)cc1)NC(=O)[C@H](CC(=O)O)NC(=O)CN)C(=O)N[C@@H](CCCNC(=N)N)C(=O)N[C@@H](Cc1ccc(O)cc1)C(=O)N[C@@H](Cc1ccc(O)cc1)C(=O)N1CCC[C@H]1C(=O)N[C@@H](Cc1c[nH]c2ccccc12)C(=O)N[C@@H](Cc1c[nH]c2ccccc12)C(=O)N[C@@H](CCCCN)C(=O)N[C@@H](CS)C(=O)N[C@H](C(=O)N[C@@H](Cc1ccc(O)cc1)C(=O)N1CCC[C@H]1C(=O)N[C@@H](CC(=O)O)C(=O)N1CCC[C@H]1C(=O)N[C@@H](CCC(=O)O)C(=O)NCC(=O)NCC(=O)NCC(=O)O)[C@@H](C)O,Ki,[3],0.0028 µM
same,IC50,[4],0.01 µM
CC(C)CC(CC(=O)NO)C(=O)NC(C(=O)NC(C)C(=O)NCCN)C(C)(C)C (configuration not stated),IC50,[5],0.2 µM
CN(C)CCCN1c2ccccc2Sc2ccc(Cl)cc21 [CHLORPROMAZINE],IC50,[6],7.24 µM
CC(CN1c2ccccc2Sc2ccccc21)N(C)C (configuration not stated) [PROMETHAZINE],IC50,[6],7.48 µM
C/C(=N/NC(N)=S)c1cccs1,IC50,[7],5.33 µM
same,CC50 at 72 h,[2],100 µM
same,EC50,[8],6.4 µM
O=C(NC(Cc1ccccc1)C(=O)N1CCC(O)(c2ccc(Br)cc2)CC1)c1ccccc1 (configuration not stated),EC50,[9],110 µM
CC[C@H](C)[C@H](NC(=O)[C@H](Cc1ccc(O)cc1)NC(=O)[C@H](CO)NC(=O)[C@H](CCC(=O)O)NC(=O)[C@H](CC(N)=O)NC(=O)[C@H](CC(C)C)NC(=O)[C@H](C)NC(=O)[C@H](CCCCN)NC(=O)[C@@H](NC(=O)[C@@H](NC(=O)[C@H](CCC(N)=O)NC(=O)[C@H](CCC(N)=O)NC(=O)[C@H](CC(C)C)NC(=O)[C@H](CO)NC(=O)[C@H](CC(C)C)NC(=O)[C@H](CCSC)NC(=O)[C@H](CCC(=O)O)NC(=O)[C@H](Cc1ccc(O)cc1)NC(=O)[C@@H](NC(=O)[C@H](CC(C)C)NC(=O)[C@H](CC(=O)O)NC(=O)[C@H](CC(C)C)NC(=O)[C@H](CC(C)C)NC(=O)[C@@H](NC(=O)[C@@H](NC(=O)[C@H](CC(N)=O)NC(=O)[C@@H](NC(=O)[C@H](CCC(N)=O)NC(=O)[C@@H](NC(=O)[C@H](CC(C)C)NC(=O)[C@@H](N)CO)[C@@H](C)O)[C@@H](C)CC)[C@@H](C)O)[C@@H](C)O)[C@@H](C)O)C(C)C)C(C)C)C(=O)N[C@@H](CC(=O)O)C(=O)N[C@@H](CC(C)C)C(=O)N[C@@H](CCCCN)C(=O)N[C@@H](CCC(=O)O)C(=O)N[C@@H](CC(C)C)C(=O)O,EC50,[10],> 1000 µM
same,IC50,[11],0.6 µM
COc1ccc(S(=O)(=O)O)cc1/N=N/c1c(S(=O)(=O)O)cc2cc(Nc3nc(Nc4ccccc4)nc(Nc4cc(C)c(/N=N/c5cc(S(=O)(=O)O)cc6cc(S(=O)(=O)O)cc(O)c56)cc4OC)n3)ccc2c1O,CC50 at 72 h,[2],26.9 µM
CCC[C@@H]([C@@H](CC(C)C)C(=O)N[C@@H](CCCCNC(=O)OCc1ccccc1)C(=O)Nc1nccs1)N(O)C=O,IC50,[5],0.001 µM
CC[C@H](C)[C@H](NC(=O)[C@H](C)NC(=O)[C@H](CCCCN)NC(=O)[C@H](CC(N)=O)NC(=O)[C@H](Cc1ccccc1)NC(=O)[C@H](CCC(N)=O)NC(=O)[C@H](CC(N)=O)NC(=O)[C@H](C)NC(=O)[C@@H](NC(=O)[C@H](CCC(N)=O)NC(=O)[C@H](CCCCN)NC(=O)[C@H](CCC(N)=O)NC(=O)[C@H](CC(N)=O)NC(=O)[C@H](CCC(=O)O)NC(=O)[C@@H](N)Cc1ccc(O)cc1)[C@@H](C)CC)C(=O)N[C@@H](CO)C(=O)N[C@@H](CCC(N)=O)C(=O)N[C@H](C(=O)N[C@@H](CCC(N)=O)C(=O)N[C@@H](CCC(=O)O)C(=O)N[C@@H](CO)C(=O)N[C@@H](CC(C)C)C(=O)N[C@H](C(=O)N[C@H](C(=O)N[C@H](C(=O)N[C@@H](CO)C(=O)N[C@H](C(=O)N[C@@H](C)C(=O)O)[C@@H](C)O)[C@@H](C)O)[C@@H](C)O)[C@@H](C)O)[C@@H](C)CC,EC50,[12],1.61 µM
OC(COc1cccc(OCC(O)CN2CCCCC2)c1)CN1CCCCC1 (configuration not stated),EC50,[8],3 µM
O=C(Nc1ccc2c(c1)C(=O)c1ccccc1C2=O)c1ccccc1,IC50,[13],9.7 µM
same,CC50 at 72 h,[2],20 µM
